Results as given in paper PMC8501799, “Constitutive signal bias mediated by the human GHRHR splice variant 1” (Proceedings of the National Academy of Sciences of the …, 2021).

Assays:
[1] = test system: SV1/Gs; assay: Gs activation (G protein NanoBiT assay); assay type: cell-based, human; conditions: HEK293T
Protocol: HEK293T cells were seeded at a density of 30,000 cells per well into 96-well culture plates pretreated with poly-D-lysine hydrobromide. After incubation for 24 h to reach 70% to 80% confluence, the cells were transiently transfected with GHRHR or SV1, Gαs-LgBiT, Gβ1, and Gγ2-SmBiT, at a 2:1:5:5 mass ratio. Twenty-four hours after transfection, cells were washed once and incubated for 30 min at 37 °C with HBSS buffer (pH 7.4) supplemented with 0.1% BSA and 10 mM HEPES. They were then reacted with coelenterazine H (5 μM) for 1 h at RT. Luminescence signals were measured using an Envision plate reader at 15-s intervals (25 °C). […] Data were corrected to baseline and vehicle-treated samples.
All functional study data were analyzed using Prism 7 (GraphPad) and presented as means ± SEM from at least three independent experiments. Concentration-response curves were evaluated with a three-parameter logistic equation. The significance was determined with either two-tailed Student’s t test or one-way ANOVA, and P < 0.05 is considered statistically significant.
Table S1. Effects of SV1 on GHRH-induced Gs activation.
Plasmid pEC50 Emax (% WT GHRHR)
G protein NanoBiT data were analyzed using a three-parameter logistic equation to d et ermine pEC50 and Emax values. pEC50 is the negative logarithm of the molar concentration of agonist that induced half the maximal response. Emax is expressed as a percentage of GHRHR/Gs response.
All values are means ± S.E.M. of five independent experiments (n = 5) conducted in duplicate. One-way ANOVA was used to determine statistical significance (*P < 0.05). WT, wild-type; NA, not

[2] = test system: N terminus truncated GHRHRs; assay: β-arrestin 1/2 recruitment (BRET), truncated receptors; assay type: cell-based, human; conditions: HEK293T
Protocol: HEK293T cells were seeded at a density of 30,000 cells per well into 96-well culture plates pretreated with poly-D-lysine hydrobromide. After incubation for 24 h to reach 70% to 80% confluence, the cells were transiently transfected with HA-Flag-GHRHR-Rluc8 or HA-Flag-SV1-Rluc8 and β-arrestin 1/2-Venus at a 1:9 mass ratio using lipofectamine 3000 reagent (Invitrogen) and cultured for another 24 h. Thereafter, cells were washed once and incubated for 30 min at 37 °C with HBSS buffer (pH 7.4) supplemented with 0.1% BSA and 10 mM HEPES. Five micromolars of coelenterazine h (YEASEN Biotechnology) was then added and incubated for 5 min in the dark. The bioluminescence resonance energy transfer (BRET) signals were detected with an Envision plate reader by calculating the ratio of emission at 535 nm over emission at 470 nm.

[3] = test system: cell cycle; assay: Cell cycle analysis (propidium iodide, flow cytometry); assay type: cell-based; conditions: 1 μM GHRH, 6 h
Protocol: Following the treatment, the cells were digested by trypsin and collected by centrifugation. Cell pellets were washed with PBS and fixed with 70% (vol/vol) ethanol at 4 °C overnight. Cells were again collected by centrifugation and washed twice with PBS. They were then resuspended in PBS containing 0.2% Triton X-100, 50 μg/mL propidium iodide (PI), and […] RNase A and incubated for 30 min at 4 °C in the dark. After incubation, fluorescence intensity was measured with a NovoCyte flow cytometer (Acea Biosciences). Cells were gated for PI staining and cell accumulation in G1, and S and G2/M phases were calculated using the NovoExpress software.

CC[C@H](C)[C@H](NC(=O)[C@H](C)NC(=O)[C@H](CC(=O)O)NC(=O)[C@H](C)NC(=O)[C@@H](N)Cc1ccc(O)cc1)C(=O)N[C@@H](Cc1ccccc1)C(=O)N[C@H](C(=O)N[C@@H](CC(N)=O)C(=O)N[C@@H](CO)C(=O)N[C@@H](Cc1ccc(O)cc1)C(=O)N[C@@H](CCCNC(=N)N)C(=O)N[C@@H](CCCCN)C(=O)N[C@H](C(=O)N[C@@H](CC(C)C)C(=O)NCC(=O)N[C@@H](CCC(N)=O)C(=O)N[C@@H](CC(C)C)C(=O)N[C@@H](CO)C(=O)N[C@@H](C)C(=O)N[C@@H](CCCNC(=N)N)C(=O)N[C@@H](CCCCN)C(=O)N[C@@H](CC(C)C)C(=O)N[C@@H](CC(C)C)C(=O)N[C@@H](CCC(N)=O)C(=O)N[C@@H](CC(=O)O)C(=O)N[C@H](C(=O)N[C@@H](CCSC)C(=O)N[C@@H](CO)C(=O)N[C@@H](CCCNC(=N)N)C(=O)N[C@@H](CCC(N)=O)C(=O)N[C@@H](CCC(N)=O)C(=O)NCC(=O)N[C@@H](CCC(=O)O)C(=O)N[C@@H](CO)C(=O)N[C@@H](CC(N)=O)C(=O)N[C@@H](CCC(N)=O)C(=O)N[C@@H](CCC(=O)O)C(=O)N[C@@H](CCCNC(=N)N)C(=O)NCC(=O)N[C@@H](C)C(=O)N[C@@H](CCCNC(=N)N)C(=O)N[C@@H](C)C(=O)N[C@@H](CCCNC(=N)N)C(=O)N[C@@H](CC(C)C)C(N)=O)[C@@H](C)CC)C(C)C)[C@@H](C)O [GHRH, growth hormone–releasing hormone]
Emax of Gs activation ([1]; AUC 0 to 25 min, mean ± SEM, n = 5 in duplicate, * P < 0.05): 56.67 ± 13.79 % WT GHRHR | pEC50 of Gs activation ([1]; AUC 0 to 25 min, three-parameter logistic, mean ± SEM, n = 5 in duplicate, * P < 0.05): 5.63 ± 0.36 | ability of SV1 to activate Gs ([1]; compared with GHRHR, Fig. 1A): significantly impaired | β-arrestin 1/2 recruitments ([2]; deletion made before the first 82 residues, 250 μM GHRH): not affected | β-arrestin 1/2 recruitments ([2]; truncation of the first 89 residues or the entire ECD): enhanced | cells in G1 phase ([3]; decreased from 46.6): 32.8% | cells in G2/M phase ([3]; increased from 22.8): 37.7%
